Molecular target: T1, human full-length MKNK1 (Homo sapiens, UniProt Q9BUB5, T385D)
T1 construct: GST (N); purchased Carna Biosciences 02-145; host or cells: insect cells (baculovirus expression system)
Assay: MKNK1 kinase high ATP assay (TR-FRET)
Assay type: biochemical
Settings: TR-FRET, 2 mM ATP (high ATP), 15 min preincubation with enzyme, 30 min reaction at 22° C.; read-out: MKNK1 IC50
Method in brief: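 Full-length human MKNK1 (T385D) preincubated 15 min at 22 °C with compound in HEPES pH 7.5/MgCl2/DTT buffer; reaction with 2 mM ATP (final) and 0.06 μM biotinylated peptide (final), 30 min at 22 °C.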

T1 sequence (Q9BUB5 1-424 isoform Q9BUB5-2 T344D): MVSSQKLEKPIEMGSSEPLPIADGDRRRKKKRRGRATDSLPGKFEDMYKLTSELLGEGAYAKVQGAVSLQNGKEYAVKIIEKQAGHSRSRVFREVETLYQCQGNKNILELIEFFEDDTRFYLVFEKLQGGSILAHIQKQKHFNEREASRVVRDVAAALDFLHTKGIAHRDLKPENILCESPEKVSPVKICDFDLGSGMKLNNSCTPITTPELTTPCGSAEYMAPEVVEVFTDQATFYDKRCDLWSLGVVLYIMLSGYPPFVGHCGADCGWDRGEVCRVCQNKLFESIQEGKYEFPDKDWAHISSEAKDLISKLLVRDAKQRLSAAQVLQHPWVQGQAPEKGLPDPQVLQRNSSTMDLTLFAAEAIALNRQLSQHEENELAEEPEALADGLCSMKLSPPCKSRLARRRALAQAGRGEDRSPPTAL

`CN(C)C(=O)[C@H]1CCc2c(sc3ncnc(Nc4cc(Cl)c5n(c4=O)C4(CCCC4)NC5=O)c23)C1` [Example 86, (7S)-4-[(8′-Chloro-1′,5′-dioxo-1′,5′-dihydro-2′H-spiro[cyclopentane-1,3′-imidazo[1,5-a]pyridin]-6′-yl)amino]-N,N-dimethyl-5,6,7,8-tetrahydro[1]benzothieno[2,3-d]pyrimidine-7-carboxamide] gave an IC50 of 0.1 nM.

For `O=C1NC2(CCCC2)n2c1c(Cl)cc(Nc1ncnc3sc4c(c13)CC[C@H](C(=O)N1CCC1)C4)c2=O` [Example 87, 6′-{[(7S)-7-(Azetidine-1-carbonyl)-5,6,7,8-tetrahydro[1]benzothieno[2,3-d]pyrimidin-4-yl]amino}-8′-chloro-2′H-spiro[cyclopentane-1,3′-imidazo[1,5-a]pyridine]-1′,5′-dione], the IC50 was 0.2 nM.

In the case of `N#CC1CN(C(=O)[C@H]2CCc3c(sc4ncnc(Nc5cc(Cl)c6n(c5=O)C5(CCCC5)NC6=O)c34)C2)C1` [Example 88, 1-{(7S)-4-[(8′-Chloro-1′,5′-dioxo-1′,5′-dihydro-2′H-spiro[cyclopentane-1,3′-imidazo[1,5-a]pyridin]-6′-yl)amino]-5,6,7,8-tetrahydro[1]benzothieno[2,3-d]pyrimidine-7-carbonyl}azetidine-3-carbonitrile], the IC50 is reported as < 0.1 nM.

For `CN(C)[C@H]1CCN(C(=O)[C@H]2CCc3c(sc4ncnc(Nc5cc(Cl)c6n(c5=O)C5(CCCC5)NC6=O)c34)C2)C1` [Example 89, 8′-Chloro-6′-({(7S)-7-[(3S)-3-(dimethylamino)pyrrolidine-1-carbonyl]-5,6,7,8-tetrahydro[1]benzothieno[2,3-d]pyrimidin-4-yl}amino)-2′H-spiro[cyclopentane-1,3′-imidazo[1,5-a]pyridine]-1′,5′-dione], the IC50 was < 0.1 nM.

Molecule `C[C@@H]1COCCN1C(=O)[C@H]1CCc2c(sc3ncnc(Nc4cc(Cl)c5n(c4=O)C4(CCCC4)NC5=O)c23)C1` [Example 90, 8′-Chloro-6′-({(7S)-7-[(3R)-3-methylmorpholine-4-carbonyl]-5,6,7,8-tetrahydro[1]benzothieno[2,3-d]pyrimidin-4-yl}amino)-2′H-spiro[cyclopentane-1,3′-imidazo[1,5-a]pyridine]-1′,5′-dione] has an IC50 of 0.3 nM.

For `C[C@@H]1CN(C(=O)[C@H]2CCc3c(sc4ncnc(Nc5cc(Cl)c6n(c5=O)C5(CCCC5)NC6=O)c34)C2)CCN1C` [Example 91, 8′-Chloro-6′-({(7S)-7-[(3R)-3,4-dimethylpiperazine-1-carbonyl]-5,6,7,8-tetrahydro[1]benzothieno[2,3-d]pyrimidin-4-yl}amino)-2′H-spiro[cyclopentane-1,3′-imidazo[1,5-a]pyridine]-1′,5′-dione], the IC50 was < 0.1 nM.

`O=C1NC2(CCCC2)n2c1c(Cl)cc(Nc1ncnc3sc4c(c13)CC[C@H](C(=O)N1C[C@H]3C[C@@H]1CO3)C4)c2=O` [Example 92, 8′-Chloro-6′-({(7S)-7-[(1R,4R)-2-oxa-5-azabicyclo[2.2.1]heptane-5-carbonyl]-5,6,7,8-tetrahydro[1]benzothieno[2,3-d]pyrimidin-4-yl}amino)-2′H-spiro[cyclopentane-1,3′-imidazo[1,5-a]pyridine]-1′,5′-dione] was tested, and the IC50 was 1 nM.

`O=C1NC2(CCC2)n2c1c(Cl)cc(Nc1ncnc3sc4c(c13)CC[C@H](C(=O)O)C4)c2=O` [Example 93, (7S)-4-[(8′-Chloro-1′,5′-dioxo-1′,5′-dihydro-2′H-spiro[cyclobutane-1,3′-imidazo[1,5-a]pyridin]-6′-yl)amino]-5,6,7,8-tetrahydro[1]benzothieno[2,3-d]pyrimidine-7-carboxylic acid] was tested, and the IC50 was 1.3 nM.

`NC(=O)[C@H]1CCc2c(sc3ncnc(Nc4cc(Cl)c5n(c4=O)C4(CCC4)NC5=O)c23)C1` [Example 94, (7S)-4-[(8′-Chloro-1′,5′-dioxo-1′,5′-dihydro-2′H-spiro[cyclobutane-1,3′-imidazo[1,5-a]pyridin]-6′-yl)amino]-5,6,7,8-tetrahydro[1]benzothieno[2,3-d]pyrimidine-7-carboxamide] gave an IC50 of 0.2 nM.

`CN(C)C(=O)[C@H]1CCc2c(sc3ncnc(Nc4cc(Cl)c5n(c4=O)C4(CCC4)NC5=O)c23)C1` [Example 95, (7S)-4-[(8′-Chloro-1′,5′-dioxo-1′,5′-dihydro-2′H-spiro[cyclobutane-1,3′-imidazo[1,5-a]pyridin]-6′-yl)amino]-N,N-dimethyl-5,6,7,8-tetrahydro[1]benzothieno[2,3-d]pyrimidine-7-carboxamide] was tested, and the IC50 was 1.9 nM.

In the case of `O=C1NC2(CCC2)n2c1c(Cl)cc(Nc1ncnc3sc4c(c13)CC[C@H](C(=O)N1CCC1)C4)c2=O` [Example 96, 6′-{[(7S)-7-(Azetidine-1-carbonyl)-5,6,7,8-tetrahydro[1]benzothieno[2,3-d]pyrimidin-4-yl]amino}-8′-chloro-2′H-spiro[cyclobutane-1,3′-imidazo[1,5-a]pyridine]-1′,5′-dione], the IC50 is reported as 0.1 nM.

In the case of `N#CC1CN(C(=O)[C@H]2CCc3c(sc4ncnc(Nc5cc(Cl)c6n(c5=O)C5(CCC5)NC6=O)c34)C2)C1` [Example 97, 1-{(7S)-4-[(8′-Chloro-1′,5′-dioxo-1′,5′-dihydro-2′H-spiro[cyclobutane-1,3′-imidazo[1,5-a]pyridin]-6′-yl)amino]-5,6,7,8-tetrahydro[1]benzothieno[2,3-d]pyrimidine-7-carbonyl}azetidine-3-carbonitrile], the IC50 is reported as 0.1 nM.

In the case of `CN(C)[C@H]1CCN(C(=O)[C@H]2CCc3c(sc4ncnc(Nc5cc(Cl)c6n(c5=O)C5(CCC5)NC6=O)c34)C2)C1` [Example 98, 8′-Chloro-6′-({(7S)-7-[(3S)-3-(dimethylamino)pyrrolidine-1-carbonyl]-5,6,7,8-tetrahydro[1]benzothieno[2,3-d]pyrimidin-4-yl}amino)-2′H-spiro[cyclobutane-1,3′-imidazo[1,5-a]pyridine]-1′,5′-dione], the IC50 is reported as < 0.1 nM.

For `C[C@@H]1COCCN1C(=O)[C@H]1CCc2c(sc3ncnc(Nc4cc(Cl)c5n(c4=O)C4(CCC4)NC5=O)c23)C1` [Example 99, 8′-Chloro-6′-({(7S)-7-[(3R)-3-methylmorpholine-4-carbonyl]-5,6,7,8-tetrahydro[1]benzothieno[2,3-d]pyrimidin-4-yl}amino)-2′H-spiro[cyclobutane-1,3′-imidazo[1,5-a]pyridine]-1′,5′-dione], the IC50 was 0.1 nM.

`C[C@@H]1CN(C(=O)[C@H]2CCc3c(sc4ncnc(Nc5cc(Cl)c6n(c5=O)C5(CCC5)NC6=O)c34)C2)CCN1C` [Example 100, 8′-Chloro-6′-({(7S)-7-[(3R)-3,4-dimethylpiperazine-1-carbonyl]-5,6,7,8-tetrahydro[1]benzothieno[2,3-d]pyrimidin-4-yl}amino)-2′H-spiro[cyclobutane-1,3′-imidazo[1,5-a]pyridine]-1′,5′-dione] showed an IC50 of 0.1 nM.

`O=C1NC2(CSC2)n2c1c(Cl)cc(Nc1ncnc3sc4c(c13)CC[C@H](C(=O)O)C4)c2=O` [Example 101, (7S)-4-[(8-Chloro-1,5-dioxo-1,5-dihydro-2H-spiro[imidazo[1,5-a]pyridine-3,3′-thietan]-6-yl)amino]-5,6,7,8-tetrahydro[1]benzothieno[2,3-d]pyrimidine-7-carboxylic acid] was tested, and the IC50 was 1.8 nM.

`CN(C)C(=O)[C@H]1CCc2c(sc3ncnc(Nc4cc(Cl)c5n(c4=O)C4(CSC4)NC5=O)c23)C1` [Example 102, (7S)-4-[(8-Chloro-1,5-dioxo-1,5-dihydro-2H-spiro[imidazo[1,5-a]pyridine-3,3′-thietan]-6-yl)amino]-N,N-dimethyl-5,6,7,8-tetrahydro[1]benzothieno[2,3-d]pyrimidine-7-carboxamide] gave an IC50 of 0.2 nM.

Work on `O=C1NC2(CSC2)n2c1c(Cl)cc(Nc1ncnc3sc4c(c13)CC[C@H](C(=O)N1CCC1)C4)c2=O` [Example 103, 6-{[(7S)-7-(Azetidine-1-carbonyl)-5,6,7,8-tetrahydro[1]benzothieno[2,3-d]pyrimidin-4-yl]amino}-8-chloro-2H-spiro[imidazo[1,5-a]pyridine-3,3′-thietane]-1,5-dione] yielded an IC50 of 0.2 nM.

`N#CC1CN(C(=O)[C@H]2CCc3c(sc4ncnc(Nc5cc(Cl)c6n(c5=O)C5(CSC5)NC6=O)c34)C2)C1` [Example 104, 1-{(7S)-4-[(8-Chloro-1,5-dioxo-1,5-dihydro-2H-spiro[imidazo[1,5-a]pyridine-3,3′-thietan]-6-yl)amino]-5,6,7,8-tetrahydro[1]benzothieno[2,3-d]pyrimidine-7-carbonyl}azetidine-3-carbonitrile] gave an IC50 of 0.2 nM.

Work on `CN(C)[C@H]1CCN(C(=O)[C@H]2CCc3c(sc4ncnc(Nc5cc(Cl)c6n(c5=O)C5(CSC5)NC6=O)c34)C2)C1` [Example 105, 8-Chloro-6-({(7S)-7-[(3S)-3-(dimethylamino)pyrrolidine-1-carbonyl]-5,6,7,8-tetrahydro[1]benzothieno[2,3-d]pyrimidin-4-yl}amino)-2H-spiro[imidazo[1,5-a]pyridine-3,3′-thietane]-1,5-dione] yielded an IC50 of 0.1 nM.

`C[C@@H]1COCCN1C(=O)[C@H]1CCc2c(sc3ncnc(Nc4cc(Cl)c5n(c4=O)C4(CSC4)NC5=O)c23)C1` [Example 106, 8-Chloro-6-({(7S)-7-[(3R)-3-methylmorpholine-4-carbonyl]-5,6,7,8-tetrahydro[1]benzothieno[2,3-d]pyrimidin-4-yl}amino)-2H-spiro[imidazo[1,5-a]pyridine-3,3′-thietane]-1,5-dione] showed an IC50 of 0.3 nM.

`C[C@@H]1CN(C(=O)[C@H]2CCc3c(sc4ncnc(Nc5cc(Cl)c6n(c5=O)C5(CSC5)NC6=O)c34)C2)CCN1C` [Example 107, 8-Chloro-6-({(7S)-7-[(3R)-3,4-dimethylpiperazine-1-carbonyl]-5,6,7,8-tetrahydro[1]benzothieno[2,3-d]pyrimidin-4-yl}amino)-2H-spiro[imidazo[1,5-a]pyridine-3,3′-thietane]-1,5-dione] gave an IC50 of 0.2 nM.

— US20190388425A1, “SUBSTITUTED IMIDAZOPYRIDINPYRIMIDINES” (Bayer Pharma Aktiengesellschaft, priority 2017, published 2019)
